Laboratory results: patent US9113629B2, “4-amino-6-(4-substituted-phenyl)-picolinates and 6-amino-2-(4-substituted-phenyl)-pyrimidine-4-carboxylates and their use as herbicides” (DOW AGROSCIENCES LLC, priority 2013, dated 2015)
Where two headings read alike, the source gives them in different places.

What was measured:
[1] = system: Key Grass and Sedge Weeds as well as Grass Crops; test: Post-emergent Test II herbicidal activity (Table 6); type: in vivo; settings: post-emergence, 336 h; for pest or weed control at 70 g/ha: 70 g ai/ha; for pest or weed control at 140 g/ha: 140 g ai/ha
How it was run: (§1)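 Greenhouse-grown plants at first or second true leaf stage were sprayed post-emergence with compound in acetone/DMSO-based aqueous spray containing crop oil concentrate and surfactant, at 187 L/ha, highest rate plus ½× to 1/16× dilutions. After 14 d, injury was scored visually versus untreated plants, 0 (none) to 100% (complete kill).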

[2] = system: Key Broadleaf Weed and Crop Species; test: Post-emergent Test II herbicidal activity (Table 5); type: in vivo; settings: post-emergence, 336 h, 14 days after application; for pest or weed control at 70 g/ha: application rate 70 g ai/ha; for pest or weed control at 140 g/ha: application rate 140 g ai/ha
How it was run: as §1

[3] = CYPES: yellow nutsedge (Cyperus esculentus), read-out: Visual Growth Reduction (%) 14 Days After Application, CYPES
[4] = DIGSA: crabgrass (Digitaria sanguinalis), read-out: Visual Growth Reduction (%) 14 Days After Application, DIGSA
[5] = ECHCG: barnyardgrass (Echinochloa crus-galli), read-out: Visual Growth Reduction (%) 14 Days After Application, ECHCG
[6] = ORYSA: rice (Oryza sativa), crop, read-out: Visual Growth Reduction (%) 14 Days After Application, ORYSA
[7] = SETFA: giant foxtail (Setaria faberi), read-out: Visual Growth Reduction (%) 14 Days After Application, SETFA
[8] = SORVU: grain sorghum (Sorghum vulgare), read-out: Visual Growth Reduction (%) 14 Days After Application, SORVU
[9] = TRZSS (wheat, Triticum aestivum), crop, read-out: Visual Growth Reduction (%) 14 Days After Application, TRZSS
[10] = ZEAMX: maize, corn (Zea mays), crop, read-out: Visual Growth Reduction (%) 14 Days After Application, ZEAMX
[11] = ABUTH: velvetleaf (Abutilon theophrasti), read-out: Visual Growth Reduction (%) 14 Days After Application, ABUTH
[12] = AMARE: redroot pigweed (Amaranthus retroflexus), read-out: Visual Growth Reduction (%) 14 Days After Application, AMARE
[13] = BRSNN: oilseed-rape, canola (Brassica napus), read-out: Visual Growth Reduction (%) 14 Days After Application, BRSNN
[14] = CHEAL: lambsquarters (Chenopodium album), read-out: Visual Growth Reduction (%) 14 Days After Application, CHEAL
[15] = EPHHL: wild poinsettia (Euphorbia heterophylla), read-out: Visual Growth Reduction (%) 14 Days After Application, EPHHL
[16] = HELAN: sunflower (Helianthus annuus), read-out: Visual Growth Reduction (%) 14 Days After Application, HELAN
[17] = VIOTR: wild pansy (Viola tricolor), read-out: Visual Growth Reduction (%) 14 Days After Application, VIOTR

Row | Structure (SMILES) | pest or weed control at 70 g/ha [1, 3] | pest or weed control at 140 g/ha [1, 3] | pest or weed control at 70 g/ha [1, 4] | pest or weed control at 140 g/ha [1, 4] | pest or weed control at 70 g/ha [1, 5] | pest or weed control at 140 g/ha [1, 5] | pest or weed control at 70 g/ha [1, 6] | pest or weed control at 140 g/ha [1, 6] | pest or weed control at 70 g/ha [1, 7] | pest or weed control at 140 g/ha [1, 7] | pest or weed control at 70 g/ha [1, 8] | pest or weed control at 140 g/ha [1, 8] | pest or weed control at 70 g/ha [1, 9] | pest or weed control at 140 g/ha [1, 9] | pest or weed control at 70 g/ha [1, 10] | pest or weed control at 140 g/ha [1, 10] | pest or weed control at 70 g/ha [2, 11] | pest or weed control at 140 g/ha [2, 11] | pest or weed control at 70 g/ha [2, 12] | pest or weed control at 140 g/ha [2, 12] | other results
1 | COC(=O)c1nc(-c2ccc(Cl)c(F)c2)c(F)c(N)c1Cl [Compound 216] | 85 to 94% | 95 to 100% | 30 to 44% | 75 to 84% | 95 to 100% | 95 to 100% | 0 to 29% | 0 to 29% | 30 to 44% | 45 to 59% | 85 to 94% | 85 to 94% | 0 to 29% | 30 to 44% | 85 to 94% | 85 to 94% | 95 to 100% | 95 to 100% | 95 to 100% | 95 to 100% | pest or weed control at 70 g/ha [2, 13]: 75 to 84%; pest or weed control at 140 g/ha [2, 13]: 85 to 94%; pest or weed control at 70 g/ha [2, 14]: 95 to 100%; pest or weed control at 140 g/ha [2, 14]: 95 to 100%; pest or weed control at 70 g/ha [2, 15]: 95 to 100%; pest or weed control at 140 g/ha [2, 15]: 95 to 100%; pest or weed control at 70 g/ha [2, 16]: 95 to 100%; pest or weed control at 140 g/ha [2, 16]: 95 to 100%; pest or weed control at 70 g/ha [2, 17]: 85 to 94%; pest or weed control at 140 g/ha [2, 17]: 95 to 100%; melting point: 111 to 114 °C
2 | COC(=O)c1nc(-c2ccccc2)nc(N)c1OC [Compound 175] | 0 to 29% | 0 to 29% | 0 to 29% | 0 to 29% | 0 to 29% | 0 to 29% | 0 to 29% | 0 to 29% | 0 to 29% | 0 to 29% | 0 to 29% | 0 to 29% | 0 to 29% | 0 to 29% | 0 to 29% | 0 to 29% | 45 to 59% | 45 to 59% | 45 to 59% | 95 to 100% | pest or weed control at 70 g/ha [2, 13]: 0 to 29%; pest or weed control at 140 g/ha [2, 13]: 0 to 29%; pest or weed control at 70 g/ha [2, 14]: 0 to 29%; pest or weed control at 140 g/ha [2, 14]: 30 to 44%; pest or weed control at 70 g/ha [2, 15]: 85 to 94%; pest or weed control at 140 g/ha [2, 15]: 85 to 94%; pest or weed control at 70 g/ha [2, 16]: 45 to 59%; pest or weed control at 140 g/ha [2, 16]: 60 to 74%; pest or weed control at 70 g/ha [2, 17]: 0 to 29%; pest or weed control at 140 g/ha [2, 17]: 0 to 29%; melting point: 123 to 124 °C
3 | COc1c(N)nc(-c2ccc(C(F)(F)F)c(F)c2F)nc1C(=O)O [Compound 76] | 0 to 29% | 30 to 44% | 75 to 84% | 85 to 94% | 85 to 94% | 95 to 100% | 0 to 29% | 30 to 44% | 45 to 59% | 60 to 74% | 45 to 59% | 45 to 59% | 45 to 59% | 45 to 59% | 0 to 29% | 95 to 100% | 95 to 100% | 95 to 100% | 95 to 100% | 95 to 100% | pest or weed control at 70 g/ha [2, 13]: 85 to 94%; pest or weed control at 140 g/ha [2, 13]: 95 to 100%; pest or weed control at 70 g/ha [2, 14]: 85 to 94%; pest or weed control at 140 g/ha [2, 14]: 95 to 100%; pest or weed control at 70 g/ha [2, 15]: 95 to 100%; pest or weed control at 70 g/ha [2, 16]: 85 to 94%; pest or weed control at 140 g/ha [2, 16]: 95 to 100%; pest or weed control at 70 g/ha [2, 17]: 45 to 59%; pest or weed control at 140 g/ha [2, 17]: 60 to 74%; melting point: 169 to 170 °C
4 | Nc1c(F)c(-c2ccccc2)nc(C(=O)O)c1Cl [Compound 180] | 30 to 44% | 45 to 59% | 0 to 29% | 0 to 29% | 0 to 29% | 0 to 29% | 0 to 29% | 0 to 29% | 0 to 29% | 0 to 29% | 0 to 29% | 30 to 44% | 0 to 29% | 0 to 29% | 0 to 29% | 0 to 29% | 85 to 94% | 95 to 100% | 45 to 59% | 75 to 84% | pest or weed control at 70 g/ha [2, 13]: 85 to 94%; pest or weed control at 140 g/ha [2, 13]: 95 to 100%; pest or weed control at 70 g/ha [2, 14]: 95 to 100%; pest or weed control at 140 g/ha [2, 14]: 95 to 100%; pest or weed control at 70 g/ha [2, 15]: 60 to 74%; pest or weed control at 140 g/ha [2, 15]: 75 to 84%; pest or weed control at 70 g/ha [2, 16]: 85 to 94%; pest or weed control at 140 g/ha [2, 16]: 85 to 94%; pest or weed control at 70 g/ha [2, 17]: 0 to 29%; pest or weed control at 140 g/ha [2, 17]: 0 to 29%
5 | COC(=O)c1nc(-c2ccc(Br)c(F)c2)c(F)c(N)c1Cl [Compound 49] | 95 to 100% | 85 to 94% | 60 to 74% | 75 to 84% | 85 to 94% | 95 to 100% | 0 to 29% | 0 to 29% | 60 to 74% | 95 to 100% | 95 to 100% | 95 to 100% | 45 to 59% | 60 to 74% | 95 to 100% | 95 to 100% | 95 to 100% | 95 to 100% | 95 to 100% | 95 to 100% | pest or weed control at 70 g/ha [2, 13]: 95 to 100%; pest or weed control at 140 g/ha [2, 13]: 95 to 100%; pest or weed control at 70 g/ha [2, 14]: 95 to 100%; pest or weed control at 140 g/ha [2, 14]: 95 to 100%; pest or weed control at 70 g/ha [2, 16]: 95 to 100%; pest or weed control at 140 g/ha [2, 16]: 95 to 100%; pest or weed control at 70 g/ha [2, 17]: 95 to 100%; pest or weed control at 140 g/ha [2, 17]: 95 to 100%
